From ChEMBL document CHEMBL1201862, “PubChem BioAssay data set” (2004)
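Interpolation was linear, between the two tested concentrations surrounding the appropriate level; five concentrations were tested over 48 hours in 96-well plates. At the GI50, growth is halved.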 Activity calls are given as the source filed them. Cut-off read from the data, not from the text of the source: active = GI50 up to about 1.1 µM and inactive = higher.

Key:
Assay in all cases: DTP human tumour cell line panel, 48 h
[1] = test system: SF-268
[2] = test system: COLO 205
[3] = test system: OVCAR-3
[4] = test system: BT-549
[5] = test system: SNB-19
[6] = test system: MDA-N
[7] = test system: SW-620
[8] = test system: A498
[9] = test system: EKVX
[10] = test system: A549
[11] = test system: T47D
[12] = test system: OVCAR-4
[13] = test system: SNB-75
[14] = test system: SK-MEL-5
[15] = test system: PC-3
[16] = test system: SF-295
[17] = test system: CAKI-1
[18] = test system: LOX IMVI
[19] = test system: NCI/ADR-RES
[20] = test system: 786-0

Measured: GI50

Cc1cccc(C(C)(C)C)c1NC(=O)C(C#N)C1=C(Cl)C(=O)c2ccccc2C1=O (stereo not given)
inactive: [1] 17.1 µM | [2] 17.5 µM | [3] 15.7 µM | [4] 14.3 µM | [5] 18.3 µM | [6] 14.4 µM | [7] 14.5 µM | [8] 24.9 µM | [9] 12.5 µM | [10] 21.7 µM | [11] 9.95 µM | [12] 15.4 µM | [13] 13.7 µM | [14] 17 µM | [15] 13.5 µM | [16] 15.9 µM | [17] 16.7 µM | [18] 16.3 µM | [19] 16.6 µM | [20] 16.2 µM

O=C(O)Cc1cccc2c(=O)cc(-c3ccccc3)oc12 [MITOFLAXONE]
inactive: [1] > 250 µM | [2] > 250 µM | [3] 235 µM | [4] 204 µM | [5] > 250 µM | [6] 385 µM | [7] > 250 µM | [8] 226 µM | [9] 242 µM | [10] 245 µM | [11] > 250 µM | [12] 185 µM | [13] 212 µM | [14] 230 µM | [15] > 250 µM | [16] 242 µM | [17] 142 µM | [18] 243 µM | [19] 222 µM | [20] 71.4 µM
